Reference: ChEMBL document CHEMBL5465560, “Selectivity Literature for EUbOPEN Chemogenomic Library” (2024)

Legend:
[1] = target: Casein kinase II subunit alpha' (Homo sapiens) (UniProt P19784); conditions: at 10 µM
[2] = target: Interleukin-1 receptor-associated kinase 1 (Homo sapiens) (UniProt P51617); assay: Selectivity interaction (KinomeScan (DiscoverX)) EUB0000229b IRAK1; conditions: at 10 µM
[3] = target: Mitogen-activated protein kinase kinase kinase kinase 4 (Homo sapiens, UniProt O95819); assay: Selectivity interaction (KinomeScan (DiscoverX)) EUB0000655a MAP4K4; conditions: at 10 µM
[4] = target: Serine/threonine-protein kinase OSR1 (Homo sapiens) (UniProt O95747); assay: Selectivity interaction (KinomeScan (DiscoverX)) EUB0001079a OXSR1; conditions: at 1 µM
Activated CDC42 kinase 1 = Activated CDC42 kinase 1 (Homo sapiens, UniProt Q07912); assay: Selectivity interaction (KinomeScan (DiscoverX)) EUB0001079a TNK2; conditions: at 1 µM
[5] = target: Myosin light chain kinase, smooth muscle (Homo sapiens, UniProt Q15746); assay: Selectivity interaction (KinomeScan (DiscoverX)) EUB0000666a MYLK; conditions: at 10 µM
[6] = target: 5-hydroxytryptamine receptor 2A (Homo sapiens, UniProt P28223); assay: Selectivity interaction (Serotonin 5HT2A Calcium flux assay, agonist and antagonist mode ) EUB0000877a HTR2A
[7] = target: T1, Serine/threonine-protein kinase PLK4 (Homo sapiens) (UniProt O00444); assay: Selectivity interaction (Kinase panel (DSF assay)) EUB0001489b PLK4
T1 sequence (whole entry): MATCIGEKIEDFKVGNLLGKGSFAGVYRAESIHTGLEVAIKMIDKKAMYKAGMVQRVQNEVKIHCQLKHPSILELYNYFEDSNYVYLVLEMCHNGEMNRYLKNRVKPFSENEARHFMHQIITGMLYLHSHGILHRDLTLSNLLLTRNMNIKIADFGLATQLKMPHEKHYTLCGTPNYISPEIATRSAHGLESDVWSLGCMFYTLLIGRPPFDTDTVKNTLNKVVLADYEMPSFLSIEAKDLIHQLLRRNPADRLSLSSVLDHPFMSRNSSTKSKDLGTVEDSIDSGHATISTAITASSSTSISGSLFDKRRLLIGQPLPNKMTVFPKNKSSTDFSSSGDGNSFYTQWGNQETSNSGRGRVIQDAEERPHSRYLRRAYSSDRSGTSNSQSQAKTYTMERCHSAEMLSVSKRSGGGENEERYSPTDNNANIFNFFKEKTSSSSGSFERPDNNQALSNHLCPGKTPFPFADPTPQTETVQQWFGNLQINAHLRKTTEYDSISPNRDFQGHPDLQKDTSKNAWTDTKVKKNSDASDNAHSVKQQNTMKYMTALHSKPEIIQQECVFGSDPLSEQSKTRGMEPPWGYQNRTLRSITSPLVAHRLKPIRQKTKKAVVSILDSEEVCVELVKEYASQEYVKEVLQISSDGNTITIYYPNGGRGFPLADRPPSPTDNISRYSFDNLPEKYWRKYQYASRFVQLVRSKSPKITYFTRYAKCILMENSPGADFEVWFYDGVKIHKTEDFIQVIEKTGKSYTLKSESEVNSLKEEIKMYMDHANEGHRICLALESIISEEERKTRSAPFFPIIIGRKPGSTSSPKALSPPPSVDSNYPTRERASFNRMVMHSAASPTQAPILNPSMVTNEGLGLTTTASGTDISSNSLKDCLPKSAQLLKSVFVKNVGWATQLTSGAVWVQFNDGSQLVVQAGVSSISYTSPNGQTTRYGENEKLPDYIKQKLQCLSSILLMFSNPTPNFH

[8] = target: Ribosomal protein S6 kinase beta-1 (Homo sapiens, UniProt P23443); assay: Selectivity interaction (ActivX KiNativ screen (kinase selectivity in THP-1 cell lysates)) EUB0000639a RPS6KB1; type: subcellular; conditions: lysate, at 0.2 µM
[9] = target: Activin receptor type-2A (Homo sapiens) (UniProt P27037); assay: Selectivity interaction (KinomeScan (DiscoverX)) EUB0000607a ACVR2A; conditions: at 10 µM
[10] = target: Cyclin-dependent kinase 14 (Homo sapiens) (UniProt O94921); assay: Selectivity interaction (KinomeScan (DiscoverX)) EUB0001049a CDK14; conditions: at 1 µM
[11] = tested on: Tyrosine-protein kinase ABL1 (Homo sapiens), P00519 [F317L]; assay: Selectivity interaction (KinomeScan (DiscoverX)) EUB0000045b ABL1; conditions: at 10 µM
[12] = target: T2, 5-hydroxytryptamine receptor 1A (Homo sapiens) (UniProt P08908); assay: Selectivity interaction (Eurofins CEREP Diversity Profile (receptors and ion channels)) EUB0000279b HTR1A; conditions: at 10 µM
T2 sequence (whole entry): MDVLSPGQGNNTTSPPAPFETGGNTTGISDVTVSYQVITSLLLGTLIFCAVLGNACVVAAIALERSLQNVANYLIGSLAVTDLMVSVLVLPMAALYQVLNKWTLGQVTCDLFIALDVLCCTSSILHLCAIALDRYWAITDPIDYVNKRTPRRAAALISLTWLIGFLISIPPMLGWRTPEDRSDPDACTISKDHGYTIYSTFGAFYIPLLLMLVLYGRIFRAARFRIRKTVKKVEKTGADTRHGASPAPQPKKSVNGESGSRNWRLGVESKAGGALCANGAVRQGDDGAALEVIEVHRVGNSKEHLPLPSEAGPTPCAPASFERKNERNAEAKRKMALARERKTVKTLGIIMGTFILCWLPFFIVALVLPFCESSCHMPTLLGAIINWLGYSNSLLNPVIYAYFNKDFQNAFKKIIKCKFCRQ

[13] = target: T3, Serine/threonine-protein kinase RIO1 (Homo sapiens) (UniProt Q9BRS2); assay: Selectivity interaction (KinomeScan (DiscoverX)) EUB0001619a RIOK1; conditions: at 1 µM
T3 sequence (whole entry): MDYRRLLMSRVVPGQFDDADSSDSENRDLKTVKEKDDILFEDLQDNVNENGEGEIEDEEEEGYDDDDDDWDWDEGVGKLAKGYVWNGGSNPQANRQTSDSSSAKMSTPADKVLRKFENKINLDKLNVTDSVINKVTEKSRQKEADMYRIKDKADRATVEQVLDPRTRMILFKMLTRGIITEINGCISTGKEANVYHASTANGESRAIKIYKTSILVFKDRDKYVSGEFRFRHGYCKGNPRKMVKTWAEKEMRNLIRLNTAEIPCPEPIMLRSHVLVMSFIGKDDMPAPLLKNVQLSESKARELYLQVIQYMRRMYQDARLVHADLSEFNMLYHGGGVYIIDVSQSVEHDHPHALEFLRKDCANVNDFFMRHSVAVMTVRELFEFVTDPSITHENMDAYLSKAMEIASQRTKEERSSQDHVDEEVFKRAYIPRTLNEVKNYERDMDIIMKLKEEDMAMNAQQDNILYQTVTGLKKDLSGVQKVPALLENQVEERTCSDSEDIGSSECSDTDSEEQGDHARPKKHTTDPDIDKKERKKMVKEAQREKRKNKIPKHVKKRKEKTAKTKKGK

[14] = target: Tyrosine-protein kinase ABL1 (Homo sapiens, UniProt P00519); assay: Selectivity interaction (ActivX KiNativ screen (ex vivo kinase selectivity in human PBMCs)) EUB0001619a ABL1; type: cell-based; conditions: PBMC, at 1 µM
Chain of Tyrosine-protein kinase ABL1 (P00519 whole entry): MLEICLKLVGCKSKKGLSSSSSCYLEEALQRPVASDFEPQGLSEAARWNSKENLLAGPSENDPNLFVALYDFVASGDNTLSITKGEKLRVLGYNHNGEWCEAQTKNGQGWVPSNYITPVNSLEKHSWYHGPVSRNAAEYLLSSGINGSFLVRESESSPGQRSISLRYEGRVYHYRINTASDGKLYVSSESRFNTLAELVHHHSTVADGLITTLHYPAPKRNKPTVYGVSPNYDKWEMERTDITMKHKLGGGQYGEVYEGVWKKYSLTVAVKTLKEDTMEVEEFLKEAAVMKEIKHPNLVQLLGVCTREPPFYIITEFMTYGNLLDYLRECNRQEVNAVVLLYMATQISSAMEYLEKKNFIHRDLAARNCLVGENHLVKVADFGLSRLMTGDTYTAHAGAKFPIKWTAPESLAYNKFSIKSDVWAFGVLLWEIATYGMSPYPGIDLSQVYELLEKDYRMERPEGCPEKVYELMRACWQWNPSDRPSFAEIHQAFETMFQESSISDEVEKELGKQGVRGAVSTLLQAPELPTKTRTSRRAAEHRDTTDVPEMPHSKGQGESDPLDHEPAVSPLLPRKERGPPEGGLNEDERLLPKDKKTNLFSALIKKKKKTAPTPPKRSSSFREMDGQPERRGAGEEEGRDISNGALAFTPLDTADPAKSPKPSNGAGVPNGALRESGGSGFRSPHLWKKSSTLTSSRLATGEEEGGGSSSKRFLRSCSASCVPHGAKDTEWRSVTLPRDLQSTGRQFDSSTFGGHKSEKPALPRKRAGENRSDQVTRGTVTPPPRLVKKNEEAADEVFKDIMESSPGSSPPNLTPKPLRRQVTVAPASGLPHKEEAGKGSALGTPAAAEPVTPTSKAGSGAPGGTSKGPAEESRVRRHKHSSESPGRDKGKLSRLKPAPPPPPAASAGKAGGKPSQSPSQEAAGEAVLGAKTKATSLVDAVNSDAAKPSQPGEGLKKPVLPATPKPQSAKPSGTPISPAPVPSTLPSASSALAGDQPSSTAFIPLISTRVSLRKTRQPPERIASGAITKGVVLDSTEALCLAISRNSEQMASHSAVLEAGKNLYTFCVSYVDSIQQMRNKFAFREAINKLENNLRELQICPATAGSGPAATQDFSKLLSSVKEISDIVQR

Chain of Mitogen-activated protein kinase kinase kinase kinase 4 (O95819 2-1239 limits assumed): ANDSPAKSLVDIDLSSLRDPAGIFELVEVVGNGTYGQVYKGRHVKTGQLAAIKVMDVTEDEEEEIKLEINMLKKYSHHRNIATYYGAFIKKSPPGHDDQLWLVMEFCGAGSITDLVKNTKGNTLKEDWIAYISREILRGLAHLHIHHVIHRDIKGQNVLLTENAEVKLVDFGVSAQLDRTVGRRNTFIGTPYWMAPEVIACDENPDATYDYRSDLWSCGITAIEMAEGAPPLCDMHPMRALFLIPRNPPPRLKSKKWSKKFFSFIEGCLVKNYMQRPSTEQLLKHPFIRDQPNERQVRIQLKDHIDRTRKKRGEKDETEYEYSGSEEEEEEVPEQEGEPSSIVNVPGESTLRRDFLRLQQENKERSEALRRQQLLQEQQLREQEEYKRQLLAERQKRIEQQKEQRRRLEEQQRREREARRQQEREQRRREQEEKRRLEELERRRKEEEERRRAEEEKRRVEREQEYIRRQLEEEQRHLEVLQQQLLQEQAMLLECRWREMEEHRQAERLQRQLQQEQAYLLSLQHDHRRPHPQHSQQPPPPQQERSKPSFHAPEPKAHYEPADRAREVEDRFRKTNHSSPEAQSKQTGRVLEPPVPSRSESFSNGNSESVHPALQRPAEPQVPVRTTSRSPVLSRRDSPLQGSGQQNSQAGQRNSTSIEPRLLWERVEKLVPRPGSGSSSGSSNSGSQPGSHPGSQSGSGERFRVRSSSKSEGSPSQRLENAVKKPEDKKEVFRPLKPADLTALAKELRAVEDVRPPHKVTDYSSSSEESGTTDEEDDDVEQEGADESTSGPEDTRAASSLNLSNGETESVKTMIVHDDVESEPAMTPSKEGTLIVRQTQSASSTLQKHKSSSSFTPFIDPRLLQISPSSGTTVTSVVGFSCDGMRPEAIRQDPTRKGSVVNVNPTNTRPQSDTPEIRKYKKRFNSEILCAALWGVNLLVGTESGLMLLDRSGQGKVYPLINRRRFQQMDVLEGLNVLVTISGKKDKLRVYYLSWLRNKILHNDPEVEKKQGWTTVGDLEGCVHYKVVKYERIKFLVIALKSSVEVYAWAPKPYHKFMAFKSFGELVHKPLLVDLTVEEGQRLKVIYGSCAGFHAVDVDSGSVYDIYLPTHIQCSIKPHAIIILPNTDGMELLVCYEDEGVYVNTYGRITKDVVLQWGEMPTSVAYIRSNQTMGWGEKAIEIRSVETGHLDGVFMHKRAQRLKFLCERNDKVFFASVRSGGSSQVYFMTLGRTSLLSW
Chain of Activin receptor type-2A (Homo sapiens) (P27037 whole entry): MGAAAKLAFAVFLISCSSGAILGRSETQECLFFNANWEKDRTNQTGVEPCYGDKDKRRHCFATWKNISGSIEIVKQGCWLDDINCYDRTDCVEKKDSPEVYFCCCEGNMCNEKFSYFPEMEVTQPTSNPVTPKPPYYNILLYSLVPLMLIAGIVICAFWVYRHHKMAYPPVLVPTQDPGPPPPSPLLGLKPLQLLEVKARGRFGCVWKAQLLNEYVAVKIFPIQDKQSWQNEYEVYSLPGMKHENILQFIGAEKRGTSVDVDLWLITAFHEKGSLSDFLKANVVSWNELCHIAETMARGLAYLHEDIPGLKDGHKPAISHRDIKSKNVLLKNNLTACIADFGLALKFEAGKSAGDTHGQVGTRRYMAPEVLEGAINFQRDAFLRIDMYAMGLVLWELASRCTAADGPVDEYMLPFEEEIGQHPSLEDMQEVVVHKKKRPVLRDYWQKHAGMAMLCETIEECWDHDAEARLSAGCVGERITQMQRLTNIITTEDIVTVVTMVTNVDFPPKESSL
Chain of Serine/threonine-protein kinase OSR1 (Homo sapiens) (O95747 2-527 limits assumed): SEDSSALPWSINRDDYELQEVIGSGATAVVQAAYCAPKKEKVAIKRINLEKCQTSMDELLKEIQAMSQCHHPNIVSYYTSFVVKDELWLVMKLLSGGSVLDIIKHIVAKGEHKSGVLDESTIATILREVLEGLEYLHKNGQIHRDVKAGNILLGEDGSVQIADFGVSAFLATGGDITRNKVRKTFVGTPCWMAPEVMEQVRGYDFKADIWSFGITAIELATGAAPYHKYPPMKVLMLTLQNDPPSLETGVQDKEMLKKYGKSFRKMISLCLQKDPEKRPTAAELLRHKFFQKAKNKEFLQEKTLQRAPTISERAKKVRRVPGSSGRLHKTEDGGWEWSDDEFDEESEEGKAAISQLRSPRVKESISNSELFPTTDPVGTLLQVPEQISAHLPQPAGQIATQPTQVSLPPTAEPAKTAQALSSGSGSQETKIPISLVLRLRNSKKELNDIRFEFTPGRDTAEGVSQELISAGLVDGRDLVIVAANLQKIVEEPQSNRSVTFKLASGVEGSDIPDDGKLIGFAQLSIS
Chain of Activated CDC42 kinase 1 (Q07912 whole entry, looked up): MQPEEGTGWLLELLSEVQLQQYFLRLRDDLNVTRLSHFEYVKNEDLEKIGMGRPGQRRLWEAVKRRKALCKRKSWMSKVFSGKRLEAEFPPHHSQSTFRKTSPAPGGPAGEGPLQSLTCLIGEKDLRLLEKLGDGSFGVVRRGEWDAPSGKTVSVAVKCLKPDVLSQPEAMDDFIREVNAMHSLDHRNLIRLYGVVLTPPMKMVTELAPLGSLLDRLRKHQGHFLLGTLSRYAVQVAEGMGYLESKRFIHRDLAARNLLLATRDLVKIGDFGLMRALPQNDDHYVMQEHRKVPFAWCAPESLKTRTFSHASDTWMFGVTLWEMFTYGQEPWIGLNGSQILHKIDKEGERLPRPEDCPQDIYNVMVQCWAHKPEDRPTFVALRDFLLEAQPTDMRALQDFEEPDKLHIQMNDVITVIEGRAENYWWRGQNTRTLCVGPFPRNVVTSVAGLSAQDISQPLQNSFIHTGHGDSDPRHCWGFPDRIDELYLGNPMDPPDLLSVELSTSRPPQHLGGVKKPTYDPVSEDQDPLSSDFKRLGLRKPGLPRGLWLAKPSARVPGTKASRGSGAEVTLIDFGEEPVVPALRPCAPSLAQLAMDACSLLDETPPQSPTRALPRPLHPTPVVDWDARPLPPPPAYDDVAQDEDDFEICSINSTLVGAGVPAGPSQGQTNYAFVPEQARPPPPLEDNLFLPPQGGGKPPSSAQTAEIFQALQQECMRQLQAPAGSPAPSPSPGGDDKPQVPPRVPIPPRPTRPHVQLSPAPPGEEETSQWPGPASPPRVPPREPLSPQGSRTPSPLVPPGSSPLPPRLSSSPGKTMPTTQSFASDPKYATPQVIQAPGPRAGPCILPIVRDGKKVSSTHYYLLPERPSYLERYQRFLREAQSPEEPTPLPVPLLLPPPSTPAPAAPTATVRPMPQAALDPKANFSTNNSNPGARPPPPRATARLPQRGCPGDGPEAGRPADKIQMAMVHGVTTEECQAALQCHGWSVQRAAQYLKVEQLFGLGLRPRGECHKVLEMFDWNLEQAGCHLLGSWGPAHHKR
Chain of Cyclin-dependent kinase 14 (Homo sapiens) (O94921 whole entry): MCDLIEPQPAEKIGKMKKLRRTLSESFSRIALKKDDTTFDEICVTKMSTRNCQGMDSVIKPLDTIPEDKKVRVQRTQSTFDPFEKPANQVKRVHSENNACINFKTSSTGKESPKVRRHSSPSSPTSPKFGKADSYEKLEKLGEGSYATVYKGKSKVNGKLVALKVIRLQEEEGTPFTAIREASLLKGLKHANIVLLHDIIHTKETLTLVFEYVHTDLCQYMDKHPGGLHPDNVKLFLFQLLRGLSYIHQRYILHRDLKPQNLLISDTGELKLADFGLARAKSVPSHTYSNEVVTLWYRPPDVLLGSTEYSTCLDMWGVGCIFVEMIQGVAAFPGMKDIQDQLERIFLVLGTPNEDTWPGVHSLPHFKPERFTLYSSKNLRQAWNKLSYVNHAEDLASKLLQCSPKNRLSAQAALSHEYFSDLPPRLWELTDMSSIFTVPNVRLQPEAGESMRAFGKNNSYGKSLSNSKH
Chain of Tyrosine-protein kinase ABL1 (Homo sapiens), P00519 [F317L] (P00519 whole entry F317L): as the sequence (P00519 whole entry) above, with F317L counted along it

With `CCN(CC)CCCCNc1ncc2cc(-c3cc(OC)cc(OC)c3)c(NC(=O)NC(C)(C)C)nc2n1` as the compound, how does the % of control [1] read?
The % of control was 100%.

`COc1cc(N(C)c2ccnc3ccc(C(F)(F)F)cc23)cc(OC)c1OC` was tested. Which % binding [2] did it give?
The % binding was 88%.

`CN(C)CCOc1ccc(-c2nc(-c3ccncc3)c(-c3ccc4c(c3)CC/C4=N\O)[nH]2)cc1` was tested. Which % of control [3] did it give?
Its % of control is 27%.

How did the % of control [4] turn out when `Nc1cnc(N2CCc3cc(S(=O)(=O)Nc4c(F)cc(Cl)cc4F)cc(N4CCCC4=O)c32)nc1` [TP-020n] was run?
The % of control was 75%.

And the % of control (Activated CDC42 kinase 1)?
Its % of control is 91%.

`O=C(NOC[C@H](O)CO)c1ccc(F)c(F)c1Nc1ccc(I)cc1F` was tested. Which % of control [5] did it give?
The % of control was 96%.

With `CCC(=O)N1CC[C@H](Nc2ncnc3c2CN(c2cnc(OC)c(C(F)(F)F)c2)CC3)C1` [LENIOLISIB] as the compound, how does the IC50 [6] read?
The IC50 was > 30 µM.

For `CN1CCN(C(=O)c2ccc3cc2OCCOCCNc2ccn4ncc-3c4n2)CC1`, which dTM [7] is on record?
The dTM was 4 K.

How did the % of inhibition [8] turn out when `CC[C@@H]1[C@H](F)C(=O)N[C@@H]1COc1nccc2cc(C(N)=O)c(OC)cc12` [ZIMLOVISERTIB] was run?
The % of inhibition was -6.2%.

With `CNC(=O)Nc1ccc(-c2nc(N3CC4CCC(C3)O4)c3cnn(C4CCC5(CC4)OCCO5)c3n2)cc1` as the compound, how does the % of control [9] read?
The % of control was 78%.

`COc1cc(Nc2nc(C)cc(-c3cnn4nc(OC)ccc34)n2)cc(C(F)(F)F)c1` was tested. Which % of control [10] did it give?
The % of control was 87%.

How did the % of control [11] turn out when `C=CC(=O)Nc1cc(-n2c(=O)ccc3cnc4ccc(-c5ccc(NS(C)(=O)=O)cc5)cc4c32)ccc1C` was run?
The % of control was 75%.

`CC(=O)c1cc(-c2ccccc2OCC2CC2)c2ncccn12` was tested. Which % of control [12] did it give?
The % of control was 83%.

With `N#Cc1cccc(-c2c[nH]c3ncnc(N4CCOCC4)c23)c1` as the compound, how does the % of control [13] read?
The % of control was 38%.

What about the % of inhibition [14] of the same compound?
Its % of inhibition is -1%.
